This is an account of results in patent US7194978B2, “Inducing sterility in fish by disrupting the development of the GnRH system” (University of Maryland Biotechnology Institute, priority 2003, dated 2007).

Assay [1] deals with sbGnRH transcript levels. Briefly: sbGnRH transcript levels in seabream larvae after GABA immersion, quantitative RT-PCR. It counts as in vivo, gilthead seabream (Sparus aurata). The conditions noted are these: seabream larvae 3 days, 1 week, 2 weeks pf; immersion in GABA 10^−7 to 10^−3 M for 18 hours. The method, then:
(§1) FIGS. 2A, B and C show the effect of GABA treatment on GnRH gene expression during development. Larvae were sampled 24 hours after overnight treatment at 3 days pf ( ? ), 1 week pf ( ? ) or 2 weeks pf ( ? ) and levels of GnRH transcript were measured by quantitative RT-PCR Values on the Y axis are expressed as copy number/20 ng total RNA. Values on the X axis range from 0 to 1 mM GABA. 100 ng total RNA was isolated from tissues using a modified acid-phenol extraction method (TRI REAGENT, MRC, Inc., Cincinnati, Ohio) and reverse transcribed into cDNA using random hexamers and MMLV reverse transcriptase. PCR was performed in 96-well plates on diluted cDNA templates using SYBR® Green PCR Core Reagent (PE Applied Biosystems, Foster City, Calif.) and the relevant GnRH primers. […] For each reaction, the Prism® 7700 generated an amplification plot of fluorescence signal versus cycle number, and CT (the fractional cycle number at which fluorescence passes a baseline threshold value) was determined (Fink et al., 1998). […] Quantitation of the amount of target in each sample was accomplished by comparing CT values of unknowns to standards to determine initial copy number. […]
(§2) Seabream. […] At 24 hours post-treatment, transcript levels for each of the 3 GnRHs in seabream were determined using real-time, fluorescence-based quantitative RT-PCR assays. […]

The subject of assay [2] is forebrain (TN) GnRH neurons. Nature of the assay: Developmental migration of GnRH neurons in zebrafish larvae, whole-mount ISH. Particulars: sampled at 7, 9, 10, 12 days pf. It counts as in vivo, zebrafish (Danio rerio). The source says: Digoxigenin (DIG)-labeled complimentary RNA (cRNA) probe was synthesized from plasmid DNA, containing the seabream TN GnRH cDNA, using T7 RNA polymerase. The probe was hybridized to cellular TN GnRH mRNA in whole, fixed 3–22 days pf of larvae. The hybridized probe was then detected with anti-DIG antibody conjugated to alkaline phosphatase (Anti-DIG-AP), and the complex (mRNA:DIG-labeled cRNA:Anti-DIG-AP) was detected by an enzymatic reaction of AP with a chromogenic substrate, which forms a precipitating dark purple pigment. The procedure was performed according to a standard published protocol for whole-mount ISH (Westerfield et al., 1995). The age of the larvae are boxed on the top left of each photograph. TN GnRH-expressing cells are indicated by an arrow.
FIGS. 3A, B and C show the effect of GABA-ergic compounds on developmental migration of TN GnRH neurons in zebrafish. […] Note the extent of neuronal migration toward the brain seen in untreated fish, as compared to treated fish. Whole-mount ISH analysis was done as described in FIG. 1. Differential interference contrasting microscopy was used to visualize TN GnRH hybridization in deep tissue layers of the nasal placode. All panels at 200×.
Zebrafish. Zebrafish larvae 5–8 days post-fertilization (dpf) and 7–10 dpf were immersed in GABA (1 mM) or Muscimol (100 micromolar). […]

Assay [3] has as its system zebrafish gonads. Nature of the assay: Gonadal development in zebrafish, histological analysis of the gonads at 9 weeks. Particulars: histology after 9 weeks of growth. It counts as in vivo, zebrafish (Danio rerio). The method, then:
FIGS. 4A. B and C show the effect of GABA-ergic compounds on gonadal development in zebrafish. Hematoxylineosin staining of gonadal tissues of 9-week old zebrafish exposed at 7–10 days pf to A) no treatment, B) 1 mM GABA and C) 100 μM Muscimol. Note greater degree of organization and more advanced gamete development in A), compared to B) and C). s: somatic cells; o: oogonia; v: oocytes in early stages of vitellogenesis; v*: vitellogenic oocytes with abnormal follicle development. A), C) at 200×; B) 400×.
Zebrafish. Zebrafish larvae 5–8 days post-fertilization (dpf) and 7–10 dpf were immersed in GABA (1 mM) or Muscimol (100 micromolar). Muscimol is a potent GABA agonist that acts specifically on GABAA receptor subtypes. Similar to the post-treatment assays conducted on seabream larvae, zebrafish tissue samples (n=12) were collected at 7, 9, 10, and 12 days pf and also after 9 weeks of growth for detection/analysis of GnRH neuron development and histological analysis of the gonads. […] Confirmation is made to determine the effectiveness of the treatment prior to sexual maturation (or lack thereof).
Zebrafish larvae were immersed in GABA (1 mM) or Muscimol (100 micromolar) at 5–8 days pf and 7–10 days pf. (Muscimol is a potent GABA agonist that acts specifically on GABAA receptor subtypes). Samples (n=12) were collected at 7, 9, 10, and 12 day pf for subsequent detection of GnRH neurons. […]

The subject of assay [4] is cGnRH-II expression. Nature of the assay: cGnRH-II transcript levels in seabream larvae after GABA immersion, quantitative RT-PCR. Particulars: 2-week-old seabream larvae; immersion in GABA 10^−7 to 10^−3 M for 18 hours; sampled 24 hours after treatment. It counts as in vivo, gilthead seabream (Sparus aurata). The method, then: as §1, §2
The test system of assay [5] is sGnRH gene expression. Briefly: sGnRH transcript levels in seabream larvae after GABA immersion, quantitative RT-PCR. It counts as in vivo, gilthead seabream (Sparus aurata). Particulars: immersion in GABA 10^−7 to 10^−3 M for 18 hours, sampled 24 hours after treatment. On the procedure:
FIGS. 2A, B and C show the effect of GABA treatment on GnRH gene expression during development. Larvae were sampled 24 hours after overnight treatment at 3 days pf ( ? ), 1 week pf ( ? ) or 2 weeks pf ( ? ) and levels of GnRH transcript were measured by quantitative RT-PCR Values on the Y axis are expressed as copy number/20 ng total RNA. Values on the X axis range from 0 to 1 mM GABA. 100 ng total RNA was isolated from tissues using a modified acid-phenol extraction method (TRI REAGENT, MRC, Inc., Cincinnati, Ohio) and reverse transcribed into cDNA using random hexamers and MMLV reverse transcriptase. PCR was performed in 96-well plates on diluted cDNA templates using SYBR® Green PCR Core Reagent (PE Applied Biosystems, Foster City, Calif.) and the relevant GnRH primers. Primers were designed to span intron/exon boundaries in order to avoid amplification of genomic DNA. Amplification reactions were carried out using the ABI Prism® 7700 Sequence Detection System (PE Applied Biosystems), which consists of a built-in thermalcycler, laser irradiation and CCD detector system, and software analysis package. For each reaction, the Prism® 7700 generated an amplification plot of fluorescence signal versus cycle number, and CT (the fractional cycle number at which fluorescence passes a baseline threshold value) was determined (Fink et al., 1998). […] Quantitation of the amount of target in each sample was accomplished by comparing CT values of unknowns to standards to determine initial copy number. […]
as §2
Seabream larvae at 3 days, 1 week and 2 weeks pf were immersed in various concentrations of GABA (10^−7 to 10^−3 M) for a period of 18 hours (200 larvae per treatment). Larvae were collected 24 hours after the treatments and transcript levels for each of the 3 GnRHs were determined using real-time, fluorescence-based quantitative RT-PCR assays.

Setting [6] is: zebrafish larvae immersed in 1 mM GABA at 5–8 dpf and 7–10 dpf.
[7] abbreviates: zebrafish larvae immersed in 100 micromolar Muscimol at 5–8 dpf and 7–10 dpf.

`NCCCC(=O)O` [GABA, Gamma-aminobutyric acid]: the sbGnRH transcript levels result in assay [1] is “no definitive effect seen”. Besides, in assay [2] (setting [6]), the “migration of the GnRH neurons” value is reported as “clearly inhibited”. Moreover, in assay [3] (setting [6]), the gonadal development entry is on record as “clearly inhibited”. In addition, the cGnRH-II expression entry in assay [4] is “slight increase”. The sGnRH gene expression entry in assay [5] (1-week-old seabream larvae) is recorded as “dose-dependent decrease”; in assay [5] (2-week-old seabream larvae), “no effect”; in assay [5] (3-day-old seabream larvae), “no effect”.
`NCc1cc(=O)[nH]o1` [Muscimol]: in assay [2] (setting [7]), the “migration of the GnRH neurons” value is recorded as “clearly inhibited”. For the same compound, the gonadal development entry in assay [3] (setting [7]) is on record as “clearly inhibited”.
